These results are taken from patent US20130012404A1, “CULTURE METHOD, EVALUATION METHOD AND STORAGE METHOD FOR CANCER-TISSUE-DERIVED CELL MASS OR AGGREGATED CANCER CELL MASS” (Osaka Prefectural Hospital Organization, priority 2010, published 2013).

The test system of assay [1] is aggregated cancer cell mass. Put plainly: Drug sensitivity test with doxorubicin on aggregated cancer cell masses embedded in collagen gel. It counts as cell-based. To be noted: doxorubicin 0.1, 1 and 10 μM; day 8 after culture initiation vs day 0; FIG. 14. On the procedure: Using doxorubicin that is known to exert an antitumor effect by suppressing the biosynthesis of both DNA and RNA as a result of inhibiting the reaction of DNA polymerase, RNA polymerase, and topoisomerase II due to the insertion of doxorubicin between the base pairs of DNA of tumor cells, a drug sensitivity test was carried out by the sample of Example 12. The test was carried out by embedding the aggregated cancer cell mass (×10 each) in collagen gel (CellMatrix type IA (Nitta Gelatin):5×DMEM (Gibco; 12100-038):buffer solution for gel reconstruction (50 mM NaOH, 260 mM NaHCO3, 200 mM HEPES)=7:2:1) and carrying out culture in 1 cc of a STEMPRO human ES cell serum-free medium (Gibco) under the culture conditions of a temperature of 37° C. in 5% CO2 incubator. In addition, doxorubicin was applied at a concentration of 0.1 μM, 1 μM, and 10 μM, and the states on day 0 and on day […] were compared for evaluation. An increasing rate of the area of the aggregated cancer cell mass was relatively expressed when an increasing rate of the area of the cell mass in the culture without application of a drug was determined to be 1.

The subject of assay [2] is cell mass derived from the cancer tissue (surgical specimens of human colon cancer, Example 2). Put plainly: Drug sensitivity test with 5-FU on cancer tissue-derived cell masses embedded in collagen gel. It counts as cell-based. To be noted: 5-FU 0.01, 0.1, 1, 10 and 100 μg/ml; day 8 after culture vs day 0; FIG. 4. As for the experimental part: Using 5-FU which is known to inhibit DNA synthesis by binding to a thymidylic acid synthetase involved in the metabolism process necessary for DNA synthesis, a drug sensitivity test on a sample of Example 2 was carried out. The test was carried out by embedding the cell masses (×10 each) derived from the cancer tissue in a collagen gel (CellMatrix type IA (Nitta Gelatin Inc.):5×DMEM (Gibco; 12100-038):buffer solution for gel reconstruction (50 mM NaOH, 260 mM NaHCO3, 200 mM HEPES)=7:2:1), and culturing in 1 cc of STEMPRO serum-free medium (Gibco) for human ES cells in an incubator under the culture conditions of 37° C. and 5% CO2. In addition, 5-FU was applied at a concentration of 0.01 μg/ml, 0.1 μg/ml, 1 μg/ml, 10 μg/ml, and 100 μg/ml, and the states of the cells on days 0 and 8 after culture were compared for evaluation. An increasing rate of the area of the cell mass derived from the cancer tissue was expressed relative to 1 of an increasing rate of the area of the cell mass in the culture without application of a drug.

Molecules are shown by their SMILES.

In the case of `COc1cccc2c1C(=O)c1c(O)c3c(c(O)c1C2=O)C[C@@](O)(C(=O)CO)C[C@@H]3O[C@H]1C[C@H](N)[C@H](O)[C@H](C)O1` [doxorubicin], the “proliferation of the cancer cell (increasing rate of the area of the aggregated cancer cell mass relative to 1 without drug)” value in assay [1] is reported as “concentration-dependently suppressed”.

For the compound `O=c1[nH]cc(F)c(=O)[nH]1` [5-FU], in assay [2], the “proliferation of the cancer cell (increasing rate of the area of the cell mass relative to 1 without drug)” value is “concentration-dependently suppressed”.
